Here are results for five compounds from the supplement of paper PMC7661543.

± gives the standard deviation of the averaged measurements.

Experiment in all cases: relative cell number vs DMSO control (72 h) (% of DMSO); higher = less growth inhibition (more cells)
Common to all, as to settings: sgRNA knockout: sgNT

One assay deals with BT-20. The procedure:
(§1)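 QMAP-Seq: a pool of 5 breast cancer cell lines (ZR-75-1, SKBR3, HCC-38, MDA-MB-231, BT-20), each carrying 12 doxycycline-inducible Cas9 sgRNA perturbations (11 knockouts plus non-targeting sgNT), was treated with compounds for 72 h at four 10-fold doses (10 nM-10 uM or 1 nM-1 uM range). Barcodes were amplified and sequenced, and cell number was interpolated from 293T spike-in standard curves. The result is expressed as % of the median of DMSO wells. Two biological replicates.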

For another assay, the system named is HCC-38. As to the method:
as §1

In a further assay the test system is MDA-MB-231. The procedure: as §1
Another assay deals with SKBR3. As to the method: as §1
The subject of the next assay is ZR-75-1. The procedure: as §1

Turning to `N#Cc1ccc(C(c2ccc(C#N)cc2)n2cncn2)cc1` [Letrozole], the relative cell number in the assay with BT-20 (1 nM) was 83 ± 35; with BT-20 (10 nM), 89.6 ± 27; in the assay with BT-20 (100 nM), 95.8 ± 6.8; in the assay on BT-20 (1000 nM), 104 ± 16; in the assay on HCC-38 (1 nM) it was 94.5 ± 6.1; in the assay with HCC-38 (10 nM), 107 ± 13. Further, the relative cell number with HCC-38 (100 nM) is 111 ± 12; with HCC-38 (1000 nM) it was 95 ± 12; with MDA-MB-231 (1 nM), 84.7 ± 9.7; in the assay on MDA-MB-231 (10 nM), 109 ± 10; with MDA-MB-231 (100 nM) it was 77.2 ± 7.3; in the assay with MDA-MB-231 (1000 nM) it was 106 ± 11. The relative cell number with SKBR3 (1 nM) was determined as 87.5 ± 18; in the assay with SKBR3 (10 nM), 97.5 ± 23; in the assay on SKBR3 (100 nM), 110 ± 22; in the assay on SKBR3 (1000 nM), 121.06 ± 0.081; in the assay with ZR-75-1 (1 nM), 109 ± 14; in the assay with ZR-75-1 (10 nM), 93.6 ± 24. Further, the results for the relative cell number with ZR-75-1 (100 nM) and in the assay with ZR-75-1 (1000 nM) were 106 ± 30 and 60.6 ± 7.9, respectively.
With `Cc1ccc(F)c(NC(=O)Nc2ccc(-c3cccc4[nH]nc(N)c34)cc2)c1` [Linifanib], the relative cell number with BT-20 (10 nM) is 73.8 ± 4.6; with BT-20 (100 nM) it was 105 ± 23; in the assay on BT-20 (1000 nM) it was 89.1 ± 1; with BT-20 (10000 nM), 60.5 ± 3.3; in the assay on HCC-38 (10 nM), 94.4 ± 14; in the assay on HCC-38 (100 nM), 77.6 ± 10. Also, the relative cell number with HCC-38 (1000 nM) is 118 ± 15; in the assay on HCC-38 (10000 nM), 55.4 ± 4.2; with MDA-MB-231 (10 nM), 70.5 ± 23; in the assay with MDA-MB-231 (100 nM), 112 ± 30; in the assay with MDA-MB-231 (1000 nM) it was 100 ± 22; in the assay on MDA-MB-231 (10000 nM), 22.1 ± 0.58. The relative cell number came out at 88.8 ± 1.8 with SKBR3 (10 nM); 107 ± 3.3 with SKBR3 (100 nM); 121 ± 7.9 in the assay with SKBR3 (1000 nM); 40 ± 0.42 in the assay on SKBR3 (10000 nM); 86.4 ± 18 with ZR-75-1 (10 nM); 97.6 ± 3.9 in the assay with ZR-75-1 (100 nM). Besides, the relative cell number in the assay on ZR-75-1 (1000 nM) turned out to be 93.6 ± 40; in the assay with ZR-75-1 (10000 nM) it was 33.4 ± 4.6.
As for `C[C@]1(O)C[C@@H](c2nc(-c3ccc4ccc(-c5ccccc5)nc4c3)c3c(N)nccn32)C1` [Linsitinib], the relative cell number with BT-20 (10 nM) is 111 ± 19; in the assay on BT-20 (100 nM), 121 ± 28; with BT-20 (1000 nM), 79.2 ± 3.2; in the assay with BT-20 (10000 nM) it was 102 ± 11; with HCC-38 (10 nM), 95.4 ± 8; with HCC-38 (100 nM), 99.1 ± 12. For the same compound, the relative cell number in the assay on HCC-38 (1000 nM) was 78 ± 3.6; in the assay on HCC-38 (10000 nM), 70.1 ± 4.4; with MDA-MB-231 (10 nM), 116 ± 10; in the assay on MDA-MB-231 (100 nM), 104 ± 14; with MDA-MB-231 (1000 nM), 65.3 ± 20; in the assay on MDA-MB-231 (10000 nM), 64.9 ± 13. The relative cell number came to 94.7 ± 12 in the assay on SKBR3 (10 nM); 104 ± 18 in the assay on SKBR3 (100 nM); 78.71 ± 0.77 with SKBR3 (1000 nM); 78.1 ± 11 in the assay on SKBR3 (10000 nM); 90.6 ± 23 in the assay on ZR-75-1 (10 nM); 95.7 ± 6.6 with ZR-75-1 (100 nM). Besides, the relative cell number worked out at 70.9 ± 15 in the assay on ZR-75-1 (1000 nM) and 65.7 ± 3.7 in the assay with ZR-75-1 (10000 nM).
For the compound `Nc1nc(OCc2cc(Br)cs2)c2[nH]cnc2n1` [Lomeguatrib], the relative cell number in the assay with BT-20 (10 nM) was found to be 101 ± 13; in the assay on BT-20 (100 nM) it was 115 ± 3.5; with BT-20 (1000 nM), 89.5 ± 11; in the assay with BT-20 (10000 nM), 93.7 ± 13; with HCC-38 (10 nM) it was 98.2 ± 6.3; in the assay with HCC-38 (100 nM), 88.5 ± 10. Further, the relative cell number with HCC-38 (1000 nM) turned out to be 89.6 ± 22; in the assay with HCC-38 (10000 nM), 81.9 ± 8.3; with MDA-MB-231 (10 nM), 117 ± 22; in the assay with MDA-MB-231 (100 nM), 125 ± 8.7; with MDA-MB-231 (1000 nM), 127.8 ± 0.46; with MDA-MB-231 (10000 nM), 86.4 ± 4.3. Further, the relative cell number in the assay with SKBR3 (10 nM) worked out at 111 ± 1.7; with SKBR3 (100 nM), 68.1 ± 13; with SKBR3 (1000 nM), 104 ± 14; with SKBR3 (10000 nM) it was 90.4 ± 27; in the assay with ZR-75-1 (10 nM), 103 ± 42; in the assay on ZR-75-1 (100 nM), 127 ± 3.4. For the same compound, the relative cell number in the assay with ZR-75-1 (1000 nM) was found to be 78.2 ± 47; with ZR-75-1 (10000 nM) it was 74.8 ± 5.2.
As for `CC[C@H](C)C(=O)O[C@H]1C[C@@H](C)C=C2C=C[C@H](C)[C@H](CC[C@@H]3C[C@@H](O)CC(=O)O3)[C@H]21` [Lovastatin], the relative cell number in the assay on BT-20 (10 nM) turned out to be 114 ± 20; in the assay with BT-20 (100 nM) it was 78.7 ± 11; in the assay on BT-20 (1000 nM) it was 89.9 ± 35; in the assay with BT-20 (10000 nM), 78.8 ± 12; in the assay with HCC-38 (10 nM), 96.5 ± 11; in the assay with HCC-38 (100 nM) it was 85.9 ± 6.2. Further, the relative cell number is 102 ± 22 in the assay with HCC-38 (1000 nM); 73.4 ± 13 with HCC-38 (10000 nM); 112 ± 28 in the assay on MDA-MB-231 (10 nM); 52.2 ± 31 in the assay with MDA-MB-231 (100 nM); 83 ± 29 in the assay with MDA-MB-231 (1000 nM); 15.7 ± 6.2 in the assay with MDA-MB-231 (10000 nM). The relative cell number is 103 ± 22 in the assay with SKBR3 (10 nM); 81.1 ± 12 with SKBR3 (100 nM); 93.1 ± 11 in the assay with SKBR3 (1000 nM); 78.4 ± 22 in the assay with SKBR3 (10000 nM); 138 ± 33 in the assay with ZR-75-1 (10 nM); 67.2 ± 6.6 in the assay on ZR-75-1 (100 nM). Moreover, the relative cell number came out at 100.5 ± 0.94 in the assay with ZR-75-1 (1000 nM) and 88.2 ± 6.5 in the assay on ZR-75-1 (10000 nM).
